Results on four compounds are retold here after patent EP3884941A1, “INFLAMMASOME INHIBITORS AND USE THEREOF” (CENTRO DE INVESTIGACION PRINCIPE FELIPE, priority 2020, dated 2021).

Entries after “also recorded” stand apart in the source; their conditions may differ. Peptide text beside a SMILES is read from it. * marks the point of attachment. Cbz = O=C(OCc1ccccc1)*; CH2F = FC*

Test [1] addresses T1, ASC-mediated PC1 activation (Homo sapiens, UniProt P29466).
T1 construct: His; made in house; host or cells: PC1: Sf9 insect cells (baculovirus)
T1 sequence (P29466 1-404): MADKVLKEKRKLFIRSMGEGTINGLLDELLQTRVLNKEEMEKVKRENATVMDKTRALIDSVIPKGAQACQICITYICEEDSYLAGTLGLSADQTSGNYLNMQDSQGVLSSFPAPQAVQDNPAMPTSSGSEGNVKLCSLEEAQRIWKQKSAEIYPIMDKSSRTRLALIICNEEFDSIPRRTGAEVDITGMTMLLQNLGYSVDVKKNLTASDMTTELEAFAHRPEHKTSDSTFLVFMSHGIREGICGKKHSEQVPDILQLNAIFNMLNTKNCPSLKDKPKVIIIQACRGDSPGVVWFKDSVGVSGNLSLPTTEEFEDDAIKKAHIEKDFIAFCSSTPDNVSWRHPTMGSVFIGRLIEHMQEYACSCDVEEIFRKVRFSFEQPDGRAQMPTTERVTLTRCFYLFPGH
Description: ASC-mediated PC1 reconstitution in vitro assay (primary screening). The conditions noted are these: PC1 50 nM, ASC 300 nM, substrate Ac-WEHD-AFC; read-out: IC50. It counts as biochemical. The protocol:
Recombinant PC1 (50 nM) was preincubated with the indicated concentrations of compounds for 20 min at RT in Assay Buffer (20 mM HEPES pH 7.5, 10 mM KCI, 1.5 mM MgCl2, 1mM EDTA, 1 mM EGTA, 1 mM DTT). Then 300 nM of ASC were added and incubated for another 10 min period. Caspase-1 activation was measured using fluorogenic substrate Ac-WEHD-AFC (80 µM; Enzo Life Sciences) by continuously monitoring the release of the AFC (7-Amino-4-trifluoromethylcoumarin) product in a Wallac Victor workstation. The compounds were initially tested at 20 µM with 1% of DMSO. Data are reported as the percentage of inhibition compared with the absence of the compound.
The materials and methods employed in these experiments are now described.

Test [2] relates to NLRP3 inflammasome. Description: human PBMCs cellular assay, LPS plus ATP. It counts as cell-based. The conditions noted are these: human PBMCs, LPS and ATP, VX-765 5 µM. The protocol:
Human peripheral blood mononuclear cells (PBMCs) are lymphocytes and monocytes. PBMCs were separated from the whole blood by a density gradient centrifugation method using Ficoll Histopaque. Purified PBMCs were plated in 24-well plates at 5000000 cells/well in free-serum RPMI medium. Cells were primed for 3 h with 10 ng/ml pure LPS followed by 4 h with compounds and 5 mM ATP. Supernatants were harvested and clarified by centrifugation at 1500 rpm at RT and cytokine and caspase-1 activation analysis was performed as previously described.

In test [3] the test system is NLRP3 inflammasome. The experiment in a line: inflammasome activation cellular assay, LPS plus ATP, THP-1 cells. It counts as cell-based, human. As to conditions: THP-1, LPS + ATP; pyroptosis / cell viability; MM01 1, 2.5 or 5 µM, VX-765 5 µM. On the procedure:
The MM01 compound was evaluated in the THP-1, or PMA-differentiated THP-1 cells (50 nM PMA for 24h) stimulated with lipopolysaccharide (LPS) plus adenosine triphosphate (ATP) to stimulate ASC-dependent inflammasomes NLRP3. Briefly, 1x10^6 cells were seeded in 6-well plates in 1 mL RPMI media that contained 1% FBS. Cells were either mock-treated or primed with compounds at the indicated concentrations for 30 min, followed by treatment with 100 ng/mL LPS (Sigma) and 2.5 mM ATP (Sigma) for 6 h at 37°C. In the case of nigericin stimulation, cells were primed with LPS for 3h, and then 10 µM nigericin (Sigma) was added for 30 min. Supernatants were harvested and clarified by centrifugation at 1500 rpm at RT, and a cytokine analysis was performed. Both IL-1β secretion and the release of IL-18were monitored by an ELISA assay (BD OptEIA™ Human IL-1β ELISA Kit and Human IL-18 Module Set eBioscience) following the manufacturer's instructions. Cell viability was analyzed in parallel by evaluating the release of lactate dehydrogenase (LDH) according to a commercial kit (CytoTox-ONE™ Homogeneous Membrane Integrity Assay; Promega). The release of LDH was calculated using the formula: the release of LDH (%) = 100x (Abs490 treated -Abs490 untreated cells)/ Abs490 untreated cells lysed with Triton 9% (maximum release of LDH).
The supernatants of the treated cells were precipitated by the chloroform-methanol method. Pellets were obtained by lysing cells in 25 mM of Tris-HCI pH 7.4, 1 mM EDTA, 1 mM EGTA and 1% SDS, plus protease and phosphatase inhibitors. The protein concentration was determined by the BCA protein assay. Samples were separated in a 14% SDS-PAGE gel, transferred to a nitrocellulose membrane and blocked with 5% skimmed milk for 1 h. Then the membrane was incubated overnight with primary antibodies: α-casp1 (1:1000; Cell Signaling 2225), α-IL-1β (1:1000; Acris R1130P), α-NLRP3 (1:1000; Cell Signaling 15101), α-tubulin (1:3000; Abcam ab6160) at 4°C. Membranes were washed and probed with the appropriate secondary antibody conjugated with peroxidase for enhanced chemiluminescence detection (Amersham Pharmacia Biotech).

Test [4] concerns ASC specks in THP1-ASC-GFP cells. The experiment in a line: ASC speck assay. It counts as cell-based, human. The conditions noted are these: THP-1 ASC GFP, LPS 100 ng/mL + nigericin 10 µM; MM01 10 µM, VX-765 5 µM. The protocol:
THP1-ASC-GFP cells were seeded at 1×10^6/ml the day prior to use in experiments on 35 mm glass-bottom culture dishes. The following day medium was replaced containing the indicated inhibitors or vehicle for 30 min. Cells were then primed with 100 ng/ml LPS for 3h and stimulated with 10 µM nigericin for 30 min. Samples were fixed in 4% paraformaldehyde (PFA) for 10 min at RT and washed several times. Coverslips were prepared in mounting medium plus DAPI and analyzed in a Leica SP8 confocal microscope.

The target of another test is T2, Recombinant caspase-1 (Homo sapiens, UniProt P29466).
T2 sequence (P29466 120-297 limits assumed): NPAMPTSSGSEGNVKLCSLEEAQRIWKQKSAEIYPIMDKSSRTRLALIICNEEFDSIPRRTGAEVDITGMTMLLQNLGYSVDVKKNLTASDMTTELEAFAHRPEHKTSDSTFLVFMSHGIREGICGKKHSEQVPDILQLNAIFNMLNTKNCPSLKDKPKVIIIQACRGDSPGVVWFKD
T2 sequence (P29466 317-404 limits assumed): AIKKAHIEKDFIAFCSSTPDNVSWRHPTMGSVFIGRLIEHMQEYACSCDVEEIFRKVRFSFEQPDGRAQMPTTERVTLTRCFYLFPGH
Description: caspase-1 in vitro activation assay (secondary screening). It counts as biochemical. The conditions noted are these: preactivated recombinant caspase-1. The protocol: Recombinant caspase-1 (50 nM) was incubated with the indicated concentrations of compounds for 20 min at RT in Assay Buffer. Then fluorogenic substrate Ac-WEHD-AFC (80 µM) was added, and activity was monitored in a Wallac Victor workstation. Data are reported as the percentage of inhibition compared with the absence of the inhibitor.

As for `CCCCN1C(=O)/C(=C2\SC(=S)N(Cc3ccco3)C2=O)c2cc(Br)ccc21`, the IC50 in test [1] was 300 ± 100 nM.

As for `COCCN1C(=O)/C(=C2/C(=O)Nc3ccc(Br)cc32)SC1=S`, the IC50 in test [1] was 1500 ± 800 nM. `CCO[C@@H]1OC(=O)C[C@@H]1NC(=O)[C@@H]1CCCN1C(=O)[C@@H](NC(=O)c1ccc(N)c(Cl)c1)C(C)(C)C` [VX-765, reference compound]: the inflammatory cell death result in the test with NLRP3 inflammasome [2] (LDH release) is given as “did not protect”. In the test on NLRP3 inflammasome [2], the cytokine release result was “able to inhibit”. For the same compound, the LDH release result in the test on NLRP3 inflammasome [3] was “does not decrease; also recorded: no recovery of cell viability”. Besides, in test [4], the ASC speck formation result is reported as “not inhibited”.

As to `CC(NC(=O)C(NC(=O)OCc1ccccc1)C(C)C)C(=O)NC(CC(=O)O)C(=O)CF` (stereo not drawn) [zVAD, reference compound] (Cbz-Val-Ala-Asp-CH2F; configuration not given here), the caspase-1 activity result on Recombinant caspase-1 was “inhibits”.

The term IC50 denotes the concentration that inhibits the measured activity by half.
